Target: T1, human histamine H4 receptor (Homo sapiens, UniProt Q9H3N8)
T1 construct: expressed in transfected cells; host or cells: SK-N-MC cells or COS7 cells, transiently transfected; cell membranes used
Test: Binding assay on recombinant human histamine H4 receptor (3H-histamine displacement)
Details: competition binding with 3H-histamine; membranes of SK-N-MC or COS7 cells expressing human H4 receptor; Cheng-Prusoff, KD 5 nM, ligand 5 nM
Outline: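 Membranes from SK-N-MC or COS7 cells transiently transfected with human H4R, incubated with ^3H-histamine (5-70 nM) at room temperature for 45 min, nonspecific binding with 10,000 nM histamine. Filtration and scintillation counting; compound affinity from displacement of ^3H-ligand across varying concentrations.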

T1 sequence (Q9H3N8 whole entry): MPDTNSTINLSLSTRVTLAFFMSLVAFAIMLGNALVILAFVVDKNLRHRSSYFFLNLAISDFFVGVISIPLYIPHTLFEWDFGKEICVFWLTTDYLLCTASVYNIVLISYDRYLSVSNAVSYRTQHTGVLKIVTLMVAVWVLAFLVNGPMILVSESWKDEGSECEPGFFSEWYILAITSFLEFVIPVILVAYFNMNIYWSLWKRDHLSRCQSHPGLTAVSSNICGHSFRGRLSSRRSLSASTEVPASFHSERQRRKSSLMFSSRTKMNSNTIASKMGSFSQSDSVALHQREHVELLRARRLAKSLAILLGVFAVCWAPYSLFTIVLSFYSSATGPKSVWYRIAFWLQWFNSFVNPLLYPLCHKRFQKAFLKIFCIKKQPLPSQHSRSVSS

Row | Compound | Ki
1 | Cc1c(Cl)ccc2[nH]c(-c3ccc(OCCCC4=CCN(C)CC4)nc3)nc12 [Example 126, 5-Chloro-4-methyl-2-{6-[3-(1-methyl-1,2,3,6-tetrahydro-pyridin-4-yl)-propoxy]-pyridin-3-yl}-1H-benzoimidazole] | 427 nM
2 | Cc1cccc2[nH]c(-c3ccc(OCCCC4CCN(C)CC4)nc3)nc12 [Example 106, 4-Methyl-2-{6-[3-(1-methyl-piperidin-4-yl)-propoxy]-pyridin-3-yl}-1H-benzoimidazole] | 12 nM
3 | Cc1c(F)ccc2[nH]c(-c3cccc(OCCCCC4CCN(C)CC4)c3)nc12 [Example 95, 6-Fluoro-7-methyl-2-{3-[4-(1-methyl-piperidin-4-yl)-butoxy]-phenyl}-1H-benzoimidazole] | 4 nM
4 | Cc1cc(Cl)cc2[nH]c(-c3ccc(OCCCC4CCN(C)CC4)cc3Cl)nc12 [Example 57, 6-Chloro-2-{2-chloro-4-[3-(1-methyl-piperidin-4-yl)-propoxy]-phenyl}-4-methyl-1H-benzoimidazole] | 17 nM
5 | Cc1cc(OCCCC2CCN(C)CC2)ncc1-c1nc2c(C)cccc2[nH]1 [Example 110, 4-Methyl-2-{4-methyl-6-[3-(1-methyl-piperidin-4-yl)-propoxy]-pyridin-3-yl}-1H-benzoimidazole] | 6 nM
6 | CN1CCC(CCCOc2ccc(-c3nc4cc(Cl)ccc4[nH]3)cc2)CC1 [Example 61, 5-Chloro-2-{4-[3-(1-methyl-piperidin-4-yl)-propoxy]-phenyl}-1H-benzoimidazole] | 49 nM
7 | Cc1c(F)ccc2[nH]c(-c3ccc(OCCCC4CCN(C)CC4)cc3CO)nc12 [Example 176, {2-(5-Fluoro-4-methyl-1H-benzoimidazol-2-yl)-5-[3-(1-methyl-piperidin-4-yl)-propoxy]-phenyl}-methanol] | 4 nM
8 | Cc1cccc2[nH]c(-c3ccc(OCCCN4CCN(C)CC4)cc3Cl)nc12 [Example 73, 2-{2-Chloro-4-[3-(4-methyl-piperazin-1-yl)-propoxy]-phenyl}-4-methyl-1H-benzoimidazole] | 69 nM
9 | Cc1ccc2[nH]c(-c3ccnc(OCCCCC4CCN(C)CC4)c3)nc2c1C [Example 149, 4,5-Dimethyl-2-{2-[4-(1-methyl-piperidin-4-yl)-butoxy]-pyridin-4-yl}-1H-benzoimidazole] | 4 nM
10 | Cc1cnc(OCCCCC2CCN(C)CC2)cc1-c1nc2cc(Cl)c(F)cc2[nH]1 [Example 166, 5-Chloro-6-fluoro-2-{5-methyl-2-[4-(1-methyl-piperidin-4-yl)-butoxy]-pyridin-4-yl}-1H-benzoimidazole] | 6 nM
11 | Cc1cccc2[nH]c(-c3ccc(OCCCN4CCCN(C)CC4)cc3Cl)nc12 [Example 31, 2-{2-Chloro-4-[3-(4-methyl-[1,4]diazepan-1-yl)-propoxy]-phenyl}-4-methyl-1H-benzoimidazole] | 9 nM
12 | Cc1cccc2[nH]c(-c3cc(OCCCCC4CCN(C)CC4)ncc3Br)nc12 [Example 128, 2-{5-Bromo-2-[4-(1-methyl-piperidin-4-yl)-butoxy]-pyridin-4-yl}-4-methyl-1H-benzoimidazole] | 3 nM
13 | Cc1cc2[nH]c(-c3cccc(OCCCCN4CCN(C)CC4)c3)nc2cc1Cl [Example 23, 5-Chloro-6-methyl-2-{3-[4-(4-methyl-piperazin-1-yl)-butoxy]-phenyl}-1H-benzoimidazole] | 103 nM
14 | Cc1c(OCCCCC2CCN(C)CC2)cccc1-c1nc2c(C)c(F)ccc2[nH]1 [Example 101, 6-Fluoro-7-methyl-2-{2-methyl-3-[4-(1-methyl-piperidin-4-yl)-butoxy]-phenyl}-1H-benzoimidazole] | 55 nM
15 | CN1CCN(CCCOc2ccc(-c3nc4ccccc4[nH]3)cc2F)CC1 [Example 27, 2-{3-Fluoro-4-[3-(4-methyl-piperazin-1-yl)-propoxy]-phenyl}-1H-benzoimidazole] | 74 nM
16 | Cc1cc(C)c2nc(-c3ccnc(OCCCCC4CCN(C)CC4)c3Cl)[nH]c2c1 [Example 162, 2-{3-Chloro-2-[4-(1-methyl-piperidin-4-yl)-butoxy]-pyridin-4-yl}-4,6-dimethyl-1H-benzoimidazole] | 15 nM
17 | CN1CCN(CCCOc2ccc(-c3nc4cc(OC(F)(F)F)ccc4[nH]3)c(Cl)c2)CC1 [Example 3, 2-{2-Chloro-4-[3-(4-methyl-piperazin-1-yl)-propoxy]-phenyl}-5-trifluoromethoxy-1H-benzoimidazole] | 21 nM
18 | Cc1cc(OCCCN2CCNCC2C)ccc1-c1nc2cc(C(C)(C)C)ccc2[nH]1 (centres unmarked) [Example 86, 5-tert-Butyl-2-{2-methyl-4-[3-(2-methyl-piperazin-1-yl)-propoxy]-phenyl}-1H-benzoimidazole] | 103 nM
19 | Cc1cccc2[nH]c(-c3ccc(OCCCN4CCN(C)CC4)c(F)c3)nc12 [Example 11, 2-{3-Fluoro-4-[3-(4-methyl-piperazin-1-yl)-propoxy]-phenyl}-4-methyl-1H-benzoimidazole] | 59 nM

Row | Compound | Ki
20 | Cc1cc(OCCCC2CCN(C)CC2)ccc1-c1nc2cc(F)ccc2[nH]1 [Example 67, 5-Fluoro-2-{2-methyl-4-[3-(1-methyl-piperidin-4-yl)-propoxy]-phenyl}-1H-benzoimidazole] | 1 nM
21 | Cc1c(F)ccc2[nH]c(-c3cnc(OCCCC4CCN(C)CC4)cc3CN3CCCC3)nc12 [Example 127, 5-Fluoro-4-methyl-2-{6-[3-(1-methyl-piperidin-4-yl)-propoxy]-4-pyrrolidin-1-ylmethyl-pyridin-3-yl}-1H-benzoimidazole] | 773 nM
22 | COc1cc(-c2nc3cc(C(F)(F)F)ccc3[nH]2)ccc1OCCCN1CCN(C)CC1 [Example 33, 2-{3-Methoxy-4-[3-(4-methyl-piperazin-1-yl)-propoxy]-phenyl}-5-trifluoromethyl-1H-benzoimidazole] | 81 nM
23 | Cc1c(F)ccc2[nH]c(-c3cc(OCCCCC4CCN(C)CC4)ncc3Cl)nc12 [Example 136, 2-{5-Chloro-2-[4-(1-methyl-piperidin-4-yl)-butoxy]-pyridin-4-yl}-5-fluoro-4-methyl-1H-benzoimidazole] | 1 nM
24 | Cc1cc(OCCCC2CCNCC2)ccc1-c1nc2c(C)cc(Cl)cc2[nH]1 [Example 88, 6-Chloro-4-methyl-2-[2-methyl-4-(3-piperidin-4-yl-propoxy)-phenyl]-1H-benzoimidazole] | 52 nM
25 | Cc1cc(-c2nc3c(C)c(C)ccc3[nH]2)ccc1OCCCN1CCN(C)CC1 [Example 6, 4,5-Dimethyl-2-{3-methyl-4-[3-(4-methyl-piperazin-1-yl)-propoxy]-phenyl}-1H-benzoimidazole] | 61 nM
26 | CN1CCC(CCCCOc2cc(-c3nc4cc(Cl)c(F)cc4[nH]3)c(Cl)cn2)CC1 [Example 171, 5-Chloro-2-{5-chloro-2-[4-(1-methyl-piperidin-4-yl)-butoxy]-pyridin-4-yl}-6-fluoro-1H-benzoimidazole] | 12 nM
27 | CN1CCN(CCCOc2ccc(-c3nc4cc(Cl)ccc4[nH]3)c(Cl)c2)CC1 [Example 36, 5-Chloro-2-{2-chloro-4-[3-(4-methyl-piperazin-1-yl)-propoxy]-phenyl}-1H-benzoimidazole] | 35 nM
28 | CN1CCC(CCCCOc2cc(-c3nc4c(Cl)cccc4[nH]3)c(Br)cn2)CC1 [Example 173, 2-{5-Bromo-2-[4-(1-methyl-piperidin-4-yl)-butoxy]-pyridin-4-yl}-4-chloro-1H-benzoimidazole] | 21 nM
29 | Cc1cccc2[nH]c(-c3ccc(OCCCN4CCCN(C)CC4)c(Cl)c3)nc12 [Example 78, 2-{3-Chloro-4-[3-(4-methyl-[1,4]diazepan-1-yl)-propoxy]-phenyl}-4-methyl-1H-benzoimidazole] | 21 nM
30 | CN1CCN(CCCCOc2cccc(-c3nc4cc(C(=O)c5ccccc5)ccc4[nH]3)c2)CC1 [Example 56, (2-{3-[4-(4-Methyl-piperazin-1-yl)-butoxy]-phenyl}-1H-benzoimidazol-5-yl)-phenyl-methanone] | 324 nM
31 | Cc1cc(C)c2nc(-c3ccc(OCCCC4=CCN(C)CC4)nc3)[nH]c2c1 [Example 125, 4,6-Dimethyl-2-{6-[3-(1-methyl-1,2,3,6-tetrahydro-pyridin-4-yl)-propoxy]-pyridin-3-yl}-1H-benzoimidazole] | 77 nM
32 | Cc1cc2[nH]c(-c3ccc(OCCCN4CCN(C)CC4)c(C)c3)nc2cc1Cl [Example 41, 5-Chloro-6-methyl-2-{3-methyl-4-[3-(4-methyl-piperazin-1-yl)-propoxy]-phenyl}-1H-benzoimidazole] | 78 nM
33 | Cc1ccc2[nH]c(-c3ccc(OCCCC4=CCN(C)CC4)nc3)nc2c1C [Example 124, 4,5-Dimethyl-2-{6-[3-(1-methyl-1,2,3,6-tetrahydro-pyridin-4-yl)-propoxy]-pyridin-3-yl}-1H-benzoimidazole] | 86 nM
34 | Cc1cc(C)c2nc(-c3ccnc(OCCCCC4CCN(C)CC4)c3C)[nH]c2c1 [Example 155, 4,6-Dimethyl-2-{3-methyl-2-[4-(1-methyl-piperidin-4-yl)-butoxy]-pyridin-4-yl}-1H-benzoimidazole] | 13 nM
35 | Cc1cccc2[nH]c(-c3ccc(OCCCC4CCN(C)CC4)cc3Cl)nc12 [Example 2, 2-{2-Chloro-4-[3-(1-methyl-piperidin-4-yl)-propoxy]-phenyl}-4-methyl-1H-benzoimidazole] | 9 nM
36 | CN1CCN(CCCOc2ccc(-c3nc4cc(C(C)(C)C)ccc4[nH]3)c(Cl)c2)CC1 [Example 32, 5-tert-Butyl-2-{2-chloro-4-[3-(4-methyl-piperazin-1-yl)-propoxy]-phenyl}-1H-benzoimidazole] | 93 nM
37 | Cc1cc(OCCOC2CCN(C)CC2)ccc1-c1nc2c(C)cc(Cl)cc2[nH]1 [Example 92, 6-Chloro-4-methyl-2-{2-methyl-4-[2-(1-methyl-piperidin-4-yloxy)-ethoxy]-phenyl}-1H-benzoimidazole] | 113 nM
38 | CN1CCC(CCCCOc2cc(-c3nc4cc(C(C)(C)C)ccc4[nH]3)c(Cl)cn2)CC1 [Example 172, 5-tert-Butyl-2-{5-chloro-2-[4-(1-methyl-piperidin-4-yl)-butoxy]-pyridin-4-yl}-1H-benzoimidazole] | 1 nM
